Experiments:
[1] = biological target: T1, ion channel subunit encoded by the human ether-a-go-go-related gene (hERG) (Homo sapiens, UniProt Q12809); experiment: hERG binding protocol (radioligand competition, HEK cell membranes expressing hERG); conditions: for IC50: a 'less than' figure indicates <50% inhibition at the quoted concentration, the highest tested, read-out: hERG pIC50 (converted); for P2X7:hERG Ratio: ratio of P2X7:hERG affinity
T1 construct: expressed in transfected cells; host or cells: HEK (human embryonic kidney) cells, membrane preparation
Procedure: The hERG assay was performed according to the procedure described in WO2005/037052. The affinity (pIC50) of compounds for the ion channel subunit encoded by the human ether-a-go-go-related gene (hERG) gene was determined by competition binding of radioligand 3,7-Bis[2-(4-nitro[3,5-^3H]phenyl)ethyl]-3,7-diazabicyclo[3.3.1]nonane to HEK (human embryonic kidney) cell membranes expressing hERG, in a filter wash format.
Membranes were incubated for 3 hours at room temperature with serial dilutions of the test compounds, radioligand 3,7-Bis[2-(4-nitro[3,5-^3H]phenyl)ethyl]-3,7-diazabicyclo[3.3.1]nonane at 1 nM final concentration, and assay buffer (10 mM HEPES, 130 mM NaCl, 5 mM KCl, 1 mM EGTA, 0.8 mM MgCl2, pH 7.4). The assay was conducted in a final volume of 200 μL, in the presence of 1% (v/v) dimethyl sulphoxide. Non-specific binding was determined by measuring the binding of 3,7-Bis[2-(4-nitro[3,5-^3H]phenyl)ethyl]-3,7-diazabicyclo[3.3.1]nonane in the presence of 10 […]. During this incubation GF/B filter plates were immersed in coating solution 0.3% (v/v) Polyethylenimine and 0.2% (w/v) BSA). Following incubation assay plates were harvested onto precoated GF/B filter plates using a Tomtec harvester.
The pIC50, defined as the negative logarithm of the concentration of compound required for 50% reduction in 3,7-Bis[2-(4-nitro[3,5-^3H]phenyl)ethyl]-3,7-diazabicyclo[3.3.1]nonane binding, was determined. A ‘less than’ figure indicates <50% inhibition at the quoted concentration, this being the highest concentration tested.

P2X7 receptor = biological target: T2, P2X7 receptor (Homo sapiens, UniProt Q99572); experiment: P2X7 assay (bbATP-induced ethidium bromide fluorescence in THP-1 cells); type: cell-based; conditions: 10^-5M bbATP agonist, read-out: P2X7 pIC50 (converted)
T2 construct: 200 μl of a suspension of THP-1 cells; endogenous in cells; host or cells: THP-1 cells
T2 sequence (Q99572 1-595): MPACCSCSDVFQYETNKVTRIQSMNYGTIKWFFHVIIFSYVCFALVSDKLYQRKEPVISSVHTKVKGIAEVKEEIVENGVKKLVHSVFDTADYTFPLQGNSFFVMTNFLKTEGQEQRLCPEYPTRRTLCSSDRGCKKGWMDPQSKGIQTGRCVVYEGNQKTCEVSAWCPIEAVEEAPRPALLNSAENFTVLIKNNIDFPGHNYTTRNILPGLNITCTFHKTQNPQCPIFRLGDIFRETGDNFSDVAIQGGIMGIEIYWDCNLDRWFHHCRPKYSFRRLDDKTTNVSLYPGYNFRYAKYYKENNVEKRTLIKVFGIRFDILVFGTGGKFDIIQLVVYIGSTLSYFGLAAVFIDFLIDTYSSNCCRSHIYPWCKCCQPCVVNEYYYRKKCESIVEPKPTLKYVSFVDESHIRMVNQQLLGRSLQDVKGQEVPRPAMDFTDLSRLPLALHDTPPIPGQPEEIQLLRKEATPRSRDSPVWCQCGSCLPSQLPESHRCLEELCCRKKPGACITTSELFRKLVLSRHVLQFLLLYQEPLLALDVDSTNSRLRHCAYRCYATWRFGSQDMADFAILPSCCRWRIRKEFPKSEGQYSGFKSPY
From the text: Certain compounds such as benzoylbenzoyl adenosine triphosphate (bbATP) are known to be agonists of the P2X7 receptor, effecting the formation of pores in the plasma membrane (Drug Development Research (1996), 37(3), p. 126). Consequently, when the receptor is activated using bbATP in the presence of ethidium bromide (a fluorescent DNA probe), an increase in the fluorescence of intracellular DNA-bound ethidium bromide is observed. The increase in fluorescence can be used as a measure of P2X7 receptor activation and therefore to quantify the effect of a compound on the P2X7 receptor.
In this manner, each of the title compounds of the Examples was tested for antagonist activity at the P2X7 receptor. Thus, the test was performed in 96-well flat bottomed microtitre plates, the wells being filled with 250 μl of test solution comprising 200 μl of a suspension of THP-1 cells (2.5×10^6 cells/ml) containing 10^−4M ethidium bromide, 25 μl of a high potassium buffer solution containing 10^−5M bbATP, and 25 μl of the high potassium buffer solution containing concentrations of test compound typically from 30 μM-0.001 μM. The plate was covered with a plastics sheet and incubated at 37° C. for one hour. The plate was then read in a Perkin-Elmer fluorescent plate reader, excitation 520 nm, emission 595 nm, slit widths: Ex 15 nm, Em 20 nm. For the purposes of comparison, bbATP (a P2X7 receptor agonist) and pyridoxal 5-phosphate (a P2X7 receptor antagonist) were used separately in the test as controls. From the readings obtained, a pIC50 figure was calculated for each test compound, this figure being the negative logarithm of the concentration of test compound necessary to reduce the bbATP agonist activity by 50%.

Bioavailability - Rat PK = type: in vivo, male Sprague Dawley rats; conditions: male, Sprague Dawley, plasma, po 5 mg/kg vs iv 3 mg/kg
Procedure: Pharmacokinetic parameters and concepts are used in DMPK to describe the fate of a compound in the body. The distribution and excretion of a compound are reflected in the plasma concentration-time profile. By appropriate dosing, sampling and analysis key parameters (clearance, volume, half-life, bioavailability etc.) can be determined.
Test compounds were typically dosed intravenously to the right lateral tail vein of male Sprague Dawley rats at a dose level of 3 mg/kg (1 ml/kg) in DMA:water (40:60 v/v). Rats were dosed orally at a dose level of 5 mg/kg (2 ml/kg) in 0.5% hydroxypropylmethylcellulose (HPMC, w/v)/0.1% Tween 80 (v/v) in water). […]
To determine the plasma levels of test compound, 50 μl of methanol was added to 50 μl of each of the test samples, whilst 40 μl of methanol was added to the 50 μl aliquots of control plasma containing 10 μl spikes of authentic standard used to create a calibration line and QCs. […] The resultant supernatants were analysed by HPLC-MSMS after an appropriate, selective and sensitive method had been created by optimizing both cone voltage and collision energy.
Pharmacokinetic parameters were derived from concentration-time using non-compartmental analysis in WinNonLin®. Bioavailability was calculated using the following equation F=AUCPO*DoseIV/AUCIV*DosePO.

primary rat hepatocytes = experiment: In vitro phospholipidosis protocol; type: cell-based, Han Wistar rats
Procedure: Assessment of a compounds potential to induce phospholipidosis was determined by an in vitro fluorescent assay which reports the accumulation of phospholipids in primary rat hepatocytes. Hepatocytes were isolated from Han Wistar rats by a 2-stage collagenase digest method. The hepatocytes were then plated on collagen coated 96-well plates in William's E medium. The cells were left to adhere for 1 hour then the media was replaced with a solution of 250 μg·ml^−1 collagen in Hepatozyme cell culture medium.
Cells were then cultured for 48 hours with the medium being changed at 24 hours. At 48 hours post isolation the medium was changed to Hepatozyme supplemented with the fluorescent phospholipid N-(6-tetramethylrhodaminethiocarbamoyl)-1,2-dihexadecanoyl-sn-glycero-3-phosphoethanolamine (DHPE-TRITC) (5 μg·ml^−1). At this time, test compounds were added to the hepatocytes at a range of concentrations in a serial dilution with a final concentration of 0.4% dimethylsulfoxide (used as solvent for test compounds). […]
Images of the hepatocytes were then acquired using an automated microscope platform (GE In Cell Analyser 3000). […] The quantified accumulation observed with test compounds was then normalised to a range of 0, representing the accumulation observed in cells exposed to vehicle only, and 1, representing cells exposed to 10 μM amiodarone. […]

T1 sequence (Q12809 whole entry): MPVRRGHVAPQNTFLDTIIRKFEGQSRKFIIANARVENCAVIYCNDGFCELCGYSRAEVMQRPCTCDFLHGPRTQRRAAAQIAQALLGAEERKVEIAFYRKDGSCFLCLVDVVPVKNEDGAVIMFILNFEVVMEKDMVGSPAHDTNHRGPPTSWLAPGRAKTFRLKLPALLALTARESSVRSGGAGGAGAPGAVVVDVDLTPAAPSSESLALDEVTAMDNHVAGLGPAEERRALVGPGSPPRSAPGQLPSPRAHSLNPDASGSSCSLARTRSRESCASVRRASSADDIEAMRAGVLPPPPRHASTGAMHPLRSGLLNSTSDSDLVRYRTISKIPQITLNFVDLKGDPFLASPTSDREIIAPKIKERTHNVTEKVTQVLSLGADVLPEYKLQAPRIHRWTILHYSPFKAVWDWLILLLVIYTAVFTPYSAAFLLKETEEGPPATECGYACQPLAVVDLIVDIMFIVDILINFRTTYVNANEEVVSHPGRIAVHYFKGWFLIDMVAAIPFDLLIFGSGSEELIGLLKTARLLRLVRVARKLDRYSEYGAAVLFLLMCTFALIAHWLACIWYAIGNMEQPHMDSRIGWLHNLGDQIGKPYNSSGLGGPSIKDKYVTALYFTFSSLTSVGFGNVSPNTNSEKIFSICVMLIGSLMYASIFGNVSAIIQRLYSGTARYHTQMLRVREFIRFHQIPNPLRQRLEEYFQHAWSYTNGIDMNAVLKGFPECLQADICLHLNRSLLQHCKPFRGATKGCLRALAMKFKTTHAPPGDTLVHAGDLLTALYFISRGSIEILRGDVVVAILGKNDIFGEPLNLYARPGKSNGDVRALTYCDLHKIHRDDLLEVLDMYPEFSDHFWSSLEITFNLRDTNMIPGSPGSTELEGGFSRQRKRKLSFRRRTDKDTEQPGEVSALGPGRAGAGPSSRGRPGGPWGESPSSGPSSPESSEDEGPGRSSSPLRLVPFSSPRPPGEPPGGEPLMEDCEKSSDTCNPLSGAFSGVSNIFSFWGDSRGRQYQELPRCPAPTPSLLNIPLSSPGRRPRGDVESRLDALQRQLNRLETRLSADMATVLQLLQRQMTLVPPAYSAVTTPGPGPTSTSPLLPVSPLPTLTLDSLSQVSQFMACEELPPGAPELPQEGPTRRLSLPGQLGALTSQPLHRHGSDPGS

Row | SMILES | melting point | IC50 (P2X7 receptor) [nM] | bioavailability (Bioavailability - Rat PK) [%] | IC50 [1] [nM] | P2X7:hERG Ratio [1] | minimum toxic concentration (primary rat hepatocytes; lowest dose that caused >50% cell toxicity, primary rat hepatocytes) [µM] | phospholipid (DHPE-TRITC) accumulation (primary rat hepatocytes; maximum test concentration of 250 uM, normalised 0 = vehicle, 1 = 10 μM amiodarone)
1 | C[C@H]1CCC[C@@](O)(CNC(=O)c2c(Cl)ccc3nc(N4CC[C@@H](O)C4)ccc23)C1 [Example 2, 6-Chloro-N-{[(1S,3S)-1-hydroxy-3-methylcyclohexyl]methyl}-2-[(3R)-3-hydroxypyrrolidin-1-yl]quinoline-5-carboxamide] | 222 to 223 °C | 7.94 | 59 | > 100000 | >10,000 | > 250 | no measurable accumulation
2 | C[C@H]1CCC[C@@](O)(CNC(=O)c2c(Cl)ccc3nc(N4CCC(O)CC4)ccc23)C1 [Example 3, 6-Chloro-N-{[(1S,3S)-1-hydroxy-3-methylcyclohexyl]methyl}-2-(4-hydroxypiperidin-1-yl)quinoline-5-carboxamide] | 120 °C (dec.) | 7.94 |  | > 100000 | >10,000 |  | 
3 | C[C@H]1CCC[C@@](O)(CNC(=O)c2c(Cl)ccc3nc(N4CC[C@H](O)C4)ccc23)C1 [Example 1, 6-Chloro-N-{[(1S,3S)-1-hydroxy-3-methylcyclohexyl]methyl}-2-[(3S)-3-hydroxypyrrolidin-1-yl]quinoline-5-carboxamide] | 222 °C | 7.94 |  | > 100000 | >10,000 |  | 

The next lines start with results.

Row | melting point | IC50 (P2X7 receptor) [nM] | bioavailability (Bioavailability - Rat PK) [%] | SMILES | IC50 [1] [nM] | P2X7:hERG Ratio [1] | minimum toxic concentration (primary rat hepatocytes; lowest dose that caused >50% cell toxicity, primary rat hepatocytes) [µM] | phospholipid (DHPE-TRITC) accumulation (primary rat hepatocytes; maximum test concentration of 250 uM, normalised 0 = vehicle, 1 = 10 μM amiodarone)
4 | 195 to 200 °C (dec.) |  |  | C[C@H]1CCC[C@@](O)(CNC(=O)c2c(Cl)ccc3nc(N4CCC(C)(O)C4)ccc23)C1 (stereo partly drawn) [Example 4, 6-Chloro-N-{[(1S,3S)-1-hydroxy-3-methylcyclohexyl]methyl}-2-(3-hydroxy-3-methylpyrrolidin-1-yl)quinoline-5-carboxamide] |  |  |  | 
5 |  | 10 |  | C[C@H]1CCC[C@@](O)(CNC(=O)c2c(Cl)ccc3nc(N4CCC(C)(O)C4)ccc23)C1 (single isomer, unassigned) [Example 4 - isomer 2] | > 100000 | >10,000 |  | 
